The subject of test [1] is Escherichia coli. The experiment in a line: Antibacterial activity of against Escherichia coli mutant (envA1) was determined. It counts as functional, organism-based.
For test [2], the target named is T1, UDP-3-O-acyl-N-acetylglucosamine deacetylase (Escherichia coli K-12, UniProt P0A725).
T1 sequence (P0A725 whole entry): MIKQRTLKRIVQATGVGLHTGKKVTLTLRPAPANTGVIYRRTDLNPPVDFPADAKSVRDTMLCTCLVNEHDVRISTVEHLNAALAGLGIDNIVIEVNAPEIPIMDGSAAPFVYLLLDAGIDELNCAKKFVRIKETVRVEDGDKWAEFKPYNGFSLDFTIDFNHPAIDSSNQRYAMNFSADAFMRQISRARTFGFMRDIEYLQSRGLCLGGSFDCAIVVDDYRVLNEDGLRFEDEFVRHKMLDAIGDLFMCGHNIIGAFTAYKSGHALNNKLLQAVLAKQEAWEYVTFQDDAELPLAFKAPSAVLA
The test is described as follows: Inhibition of UDP-3-O-[R-3-hydroxymyristoyl]-GlcNAc deacetylase using coupled radiochemical assay (WAVE) in Escherichia coli strain JB 1104.

For test [3], the target named is T1, UDP-3-O-acyl-N-acetylglucosamine deacetylase. The experiment in a line: Inhibition of UDP-3-O-[R-3-hydroxymyristoyl]-GlcNAc deacetylase using direct deacetylase assay (DEACET) in Escherichia coli strain JB 1104.
Test [4] has as its system Escherichia coli. The experiment in a line: Antibacterial activity against Escherichia coli mutant (envA1) was determined. The test is classed as functional.
For test [5], the system named is Escherichia coli. The experiment in a line: Antibacterial activity against Escherichia coli was determined. The test is classed as functional.
Test [6] deals with Escherichia coli. The experiment in a line: Antibacterial activity against Escherichia coli was determined; Ranges from 25-50. It counts as functional.
Test [7] deals with Escherichia coli. The test is described as follows: Antibacterial activity against Escherichia coli mutant (envA1) was determined; Ranges from 0.008-0.016. It counts as functional.
Test [8] deals with Escherichia coli. The test is described as follows: Antibacterial activity against Escherichia coli was determined; Ranges from 1-3. It counts as functional.
The test system of another test is Pseudomonas. The experiment in a line: Antibacterial activity against Pseudomonas was determined; NA=not active. The test is classed as functional, organism-based.
The subject of the next test is Serratia. The experiment in a line: Antibacterial activity against Serratia was determined; NA=not active. It counts as functional, organism-based.
Test [9] concerns Escherichia coli. The experiment in a line: Antibacterial activity against Escherichia coli was determined; Ranges from […]. The test is classed as functional.
Test [10] deals with Escherichia coli. The experiment in a line: Antibacterial activity against Escherichia coli was determined; Ranges from 200-400. It counts as functional.

≈ marks a conversion by molar mass, not a printed value. Calls of active or inactive are those of the source. The rule behind the calls is not given here.

As usually defined, the MIC is the lowest concentration found to suppress growth. As usually defined, the IC50 is the concentration that inhibits the measured activity by half. Consider `Cc1ccccc1C1=NC(C(=O)NO)CO1` (configuration not stated), for which the MIC result with Escherichia coli [1] was “inactive”. Besides, the IC50 in test [2] (read-out: IC50) was found to be 2600 nM.

As to `CCc1ccc(C2=N[C@@H](C(=O)NO)CO2)cc1`, the MIC entry in the test with Escherichia coli [1] is “inactive”. Moreover, the results for the IC50 in [2] (read-out: IC50) and in test [3] were 200 nM and 600 nM, respectively.

In the case of `Cc1ccc(C2=NC(C(=O)NO)CO2)cc1` (configuration not stated), the MIC entry in the test with Escherichia coli [1] was “inactive”. Besides, in test [2] (read-out: IC50), the IC50 worked out at 1700 nM.

In the case of `O=C(NO)[C@H]1COC(c2ccco2)=N1`, the MIC result with Escherichia coli [1] was “inactive”. The IC50 in test [2] (read-out: IC50) was found to be 9000 nM.

As for `Cc1cccc(C2=NC(C(=O)NO)CO2)c1` (configuration not stated), in the test with Escherichia coli [1], the MIC result was “inactive”. Besides, the IC50 in test [2] (read-out: IC50) was determined as 1100 nM.

Molecule `O=C(NO)C1COC(c2ccccc2Cl)=N1` (configuration not stated) showed a half-maximal inhibitory concentration (IC50) in [3] of 30000 nM.

Turning to `CCCc1cc(C2=NC(C(=O)NO)CO2)cc(OC)c1O` (configuration not stated), the figures for the MIC against Escherichia coli [4] and against Escherichia coli [5] were 0.39 µg/mL (≈ 1.33 µM) and above 100 µg/mL, respectively. This molecule also gave an IC50 in test [3] of 1400 nM.

With `CN(OCc1ccccc1)C(=O)[C@H]1COC(c2ccccc2)=N1`, the IC50 in test [2] (read-out: IC50) is above 400000 nM.

In the case of `COc1ccc(C2=N[C@@H](C(=O)NO)CO2)cc1`, the MIC was found to be 0.25 µg/mL (≈ 1.06 µM) against Escherichia coli [4] and 25 µg/mL (≈ 106 µM) with Escherichia coli [6]. For the same molecule, the 50% inhibitory concentration (IC50) in test [2] (read-out: IC50) was 300 nM; in test [3], 1400 nM.

For `CCCc1cc(C2=NC(C(=O)NO)CO2)cc(OCc2ccccc2)c1OC` (configuration not stated), the minimal inhibitory concentration (MIC) is below 0.008 µg/mL in the test on Escherichia coli [4] and 25 µg/mL (≈ 65 µM) in the test with Escherichia coli [5]. In addition, the 50% inhibitory concentration (IC50) in [3] was determined as 20 nM.

Turning to `CCCc1cc(C2=NC(C(=O)NO)CO2)ccc1OC` (configuration not stated), the minimum inhibitory concentration (MIC) against Escherichia coli [4] is 0.1 µg/mL (≈ 0.359 µM); in the test on Escherichia coli [5] it was 12.5 µg/mL (≈ 44.9 µM). Moreover, in test [3], the IC50 was 300 nM.

On to `O=C(O)C1COC(c2ccccc2)=N1` (configuration not stated), for which the half-maximal inhibitory concentration (IC50) in test [2] (read-out: IC50) is above 400000 nM.

Turning to `CCCc1cc(C2=N[C@@H](C(=O)NO)CO2)cc(OC)c1OC`, the results for the minimum inhibitory concentration (MIC) with Escherichia coli [7] and against Escherichia coli [8] were 0.008 µg/mL (≈ 0.0259 µM) and 1 µg/mL (≈ 3.24 µM), respectively. Moreover, the MIC result with Pseudomonas and in the test on Serratia was “inactive” each time. In test [3], 30 nM corresponded to half-maximal inhibition (IC50).

Take `COc1cc(C2=N[C@@H](C(=O)NO)CO2)cc(OC)c1OC`: the MIC entry with Escherichia coli [1] is “inactive”. This molecule also gave an IC50 in test [3] of 300 nM.

As for `COC(=O)C1COC(c2ccccc2)=N1` (configuration not stated), in [2] (read-out: IC50), the 50% inhibitory concentration (IC50) is above 400000 nM.

In the case of `CCCc1cc(C2=NC(C(=O)NO)CO2)cc(OC)c1OC` (configuration not stated), the MIC in the test with Escherichia coli [4] was below 0.05 µg/mL; against Escherichia coli [9], 3 µg/mL (≈ 9.73 µM). The same molecule gave an IC50 in test [3] of 50 nM.

Regarding `O=C(NO)C1COC(c2cccnc2)=N1` (configuration not stated), in the test with Escherichia coli [1], the MIC result is “inactive”. Besides, the half-maximal inhibitory concentration (IC50) in [3] was 100000 nM.

As to `O=C(NO)C1COC(c2ccccc2)=N1` (configuration not stated), the minimal inhibitory concentration (MIC) in the test with Escherichia coli [4] amounted to 3.6 µg/mL (≈ 17.5 µM); against Escherichia coli [10], 200 µg/mL (≈ 970 µM). Besides, the values for the IC50 in test [2] (read-out: IC50) and in [3] were 3000 nM and 8500 nM, respectively.

Take `CCCc1ccc(C2=N[C@@H](C(=O)NO)CO2)cc1`: the MIC entry in the test on Escherichia coli [1] is “inactive”. In test [2] (read-out: IC50), the IC50 is 100 nM.

Take `O=C(NO)C1COC(c2ccncc2)=N1` (configuration not stated): in the test on Escherichia coli [1], the MIC result is “inactive”. In [3], the half-maximal inhibitory concentration (IC50) came out at 100000 nM.

As to `O=C(NO)C1COC(c2c(Cl)cccc2Cl)=N1` (configuration not stated), the MIC entry in the test on Escherichia coli [1] is “inactive”. Also, the 50% inhibitory concentration (IC50) entry in [2] was “Not Active”; in test [3], above 200000 nM.

Turning to `O=C(NO)[C@@H]1COC(c2ccccc2)=N1`, in test [2] (read-out: IC50), the half-inhibitory concentration (IC50) was 360000 nM.

Regarding `CN(O)C(=O)[C@H]1COC(c2ccccc2)=N1`, the IC50 in [2] (read-out: IC50) is above 400000 nM.

Take `CCCc1cccc(C2=N[C@@H](C(=O)NO)CO2)c1`: the MIC against Escherichia coli [4] is 0.06 µg/mL (≈ 0.242 µM); against Escherichia coli [5], 12.5 µg/mL (≈ 50.3 µM). In addition, the IC50 in test [2] (read-out: IC50) worked out at 50 nM; in [3], 1600 nM.

Consider `O=C(NO)[C@H]1COC(c2ccccc2)=N1`, for which the results for the half-maximal inhibitory concentration (IC50) in test [2] (read-out: IC50) and in test [3] were 1500 nM and 6000 nM, respectively.

As to `CCCc1cc(C2=NC(C(=O)NO)CO2)cc(O)c1OC` (configuration not stated), the values for the minimal inhibitory concentration (MIC) in the test on Escherichia coli [4] and with Escherichia coli [5] were 0.06 µg/mL (≈ 0.204 µM) and 12.5 µg/mL (≈ 42.5 µM), respectively. The concentration for half-maximal inhibition (IC50) in test [3] is 100 nM.

The values above are taken from ChEMBL document CHEMBL1131914, “Carbohydroxamido-oxazolidines: antibacterial agents that target lipid A biosynthesis” (Bioorg Med Chem Lett, 1999).
